Results taken from paper PMC12587545, “Noncytotoxic polymyxin derivatives enhance antibiotic action against multidrug-resistant Gram-negative bacteria” (Antimicrobial Agents and Chemotherapy, 2025).
“And” between values parts separate entries of the source, which are not always exact repeats. Identical values can stand only once.

How the values were obtained:
P. aeruginosa = assay: Checkerboard assay (antibiotic potentiation); assay type: cell-based, Pseudomonas aeruginosa; settings: for MICantibiotic: antibiotic alone
Protocol: (§1) The interaction between the compounds and the antibiotics was evaluated using the fractional inhibitory concentration (FIC) index. FIC indices of ≤0.5 is synergistic, 0.5 < × ≤ 4 is additive, whereas >4 is antagonistic ([34]).
(§2) Synergy was measured by the FIC index, which is the summation of the individual FICs of the antibiotic and the compound. The FIC is calculated by dividing the MIC of one agent in the presence of another by the MIC of the agent alone. […] The FBS studies were conducted by following a previously published protocol ([29], [50]). The FBS was inactivated by heating at 56°C for 30 min with constant swirling.

A. baumannii = assay: Checkerboard assay (antibiotic potentiation); assay type: cell-based, Acinetobacter baumannii; set-up: key to FIC index: sum of FICs; ≤0.5 synergistic, 0.5–4 additive, >4 antagonistic; settings: for MICantibiotic: antibiotic alone
Protocol: (§3) The interaction between the compounds and the antibiotics was evaluated using the fractional inhibitory concentration (FIC) index. FIC indices of ≤0.5 is synergistic, 0.5 < × ≤ 4 is additive, whereas >4 is antagonistic ([34]). […] .
(§4) The bacterial isolates were acquired from ATCC or the Canadian Ward Surveillance (CANWARD) study ([56]). CANWARD isolates were collected from infected patients admitted to participating medical centers across Canada.
(§5) The antibiotic and compounds were serially diluted 2-fold in CAMHB along the x- and y-axis, respectively, on a 96-well plate that was subsequently incubated with equal volumes of bacterial inoculum overnight at 37°C. Wells containing only media were used as negative controls, and wells containing only bacteria were used as positive controls. Synergy was measured by the FIC index, which is the summation of the individual FICs of the antibiotic and the compound. The FIC is calculated by dividing the MIC of one agent in the presence of another by the MIC of the agent alone. Turbidity was confirmed with a Molecular Devices (United States) EMax Plus microplate reader at a wavelength of 590 nm. The FBS studies were conducted by following a previously published protocol ([29], [50]). The FBS was inactivated by heating at 56°C for 30 min with constant swirling.

E. coli = assay: Checkerboard assay (antibiotic potentiation); assay type: cell-based, Escherichia coli; settings: for MICantibiotic + compound: antibiotic MIC with 8 µg/mL (5 µM) compound 1; for MICantibiotic: antibiotic alone; for Potentiation: of antibiotic by 8 µg/mL (5 µM) compound 1
Protocol: as §1, §2

K. pneumoniae = assay: Checkerboard assay (antibiotic potentiation); assay type: cell-based, Klebsiella pneumoniae; settings: for Interpretation: antibiotic + compound 1; for MICantibiotic + compound: antibiotic MIC with 8 µg/mL (5 µM) compound 1; for MICantibiotic: antibiotic alone; for Potentiation: of antibiotic by 8 µg/mL (5 µM) compound 1
Protocol: as §1, §2

E. cloacae = assay: Checkerboard assay (antibiotic potentiation); assay type: cell-based, Enterobacter cloacae; settings: E. cloacae 121887 (colistin-resistant)
Protocol: as §3, §4, §5

[1] = system: MDR Gram-negative bacteria clinical isolates; assay: Checkerboard assay, summary over strains; assay type: cell-based; settings: of all 14 clinical isolates; number (%)
Protocol: as §1, §5

[2] = P. aeruginosa 262-101856, antibiotic + compound 1
[3] = A. baumannii 110193, antibiotic + compound 1
[4] = A. baumannii ATCC 17978, antibiotic + compound 1
[5] = E. coli 94393 (colistin-resistant)
[6] = E. coli 94474 (colistin-resistant)
[7] = K. pneumoniae 113250 (colistin-resistant)

In the case of `C[C@H]1COc2c(N3CCN(C)CC3)c(F)cc3c(=O)c(C(=O)O)cn1c23` [Levofloxacin], the Interpretation (P. aeruginosa; P. aeruginosa 259-96916, antibiotic + compound 1) was “Synergy (FIC indices of ≤0.5 is synergistic)”, the “MICantibiotic + compound” value (P. aeruginosa; P. aeruginosa 259-96916, antibiotic MIC with 8 µg/mL (5 µM) compound 1) was 16 µg/mL and the MICantibiotic (P. aeruginosa; P. aeruginosa 259-96916) was 512 µg/mL. The Potentiation (P. aeruginosa; P. aeruginosa 259-96916, of antibiotic by 8 µg/mL (5 µM) compound 1) was 32 fold, the FIC index (P. aeruginosa; [2]) was “x < 0.125” and the Interpretation (P. aeruginosa; [2]) was “Synergy (FIC indices of ≤0.5 is synergistic)”. The “MICantibiotic + compound” value (P. aeruginosa; P. aeruginosa 262-101856, antibiotic MIC with 8 µg/mL (5 µM) compound 1) was 4 µg/mL, the MICantibiotic (P. aeruginosa; P. aeruginosa 262-101856) was over 64 µg/mL and the Potentiation (P. aeruginosa; P. aeruginosa 262-101856, of antibiotic by 8 µg/mL (5 µM) compound 1) was ≥32-fold. The Interpretation (P. aeruginosa; P. aeruginosa 264-105354, antibiotic + compound 1) was “Synergy (FIC indices of ≤0.5 is synergistic)”, the “MICantibiotic + compound” value (P. aeruginosa; P. aeruginosa 264-105354, antibiotic MIC with 8 µg/mL (5 µM) compound 1) was 4 µg/mL and the MICantibiotic (P. aeruginosa; P. aeruginosa 264-105354) was 64 µg/mL. For the same compound, the Potentiation (P. aeruginosa; P. aeruginosa 264-105354, of antibiotic by 8 µg/mL (5 µM) compound 1) was 16 fold, the Interpretation (P. aeruginosa; P. aeruginosa 101243 (colistin-resistant), antibiotic + compound 1) was “Synergy (FIC indices of ≤0.5 is synergistic)” and the “MICantibiotic + compound” value (P. aeruginosa; P. aeruginosa 101243 (colistin-resistant), antibiotic MIC with 8 µg/mL (5 µM) compound 1) was 16 µg/mL. The MICantibiotic (P. aeruginosa; P. aeruginosa 101243 (colistin-resistant)) was 128 µg/mL, the Potentiation (P. aeruginosa; P. aeruginosa 101243 (colistin-resistant), of antibiotic by 8 µg/mL (5 µM) compound 1) was 8 fold and the Interpretation (P. aeruginosa; P. aeruginosa 114228 (colistin-resistant), antibiotic + compound 1) was “Additive (0.5 < × ≤ 4 is additive)”. The “MICantibiotic + compound” value (P. aeruginosa; P. aeruginosa 114228 (colistin-resistant), antibiotic MIC with 8 µg/mL (5 µM) compound 1) was 2 µg/mL, the MICantibiotic (P. aeruginosa; P. aeruginosa 114228 (colistin-resistant)) was 2 µg/mL and the Potentiation (P. aeruginosa; P. aeruginosa 114228 (colistin-resistant), of antibiotic by 8 µg/mL (5 µM) compound 1) was 1 fold. The Interpretation (P. aeruginosa; P. aeruginosa PAO1, antibiotic + compound 1) was “Synergy (FIC indices of ≤0.5 is synergistic)”, the Interpretation (P. aeruginosa; P. aeruginosa PAO1, antibiotic + compound 3) was “Additive (0.5 < × ≤ 4 is additive)” and the “MICantibiotic + compound” value (P. aeruginosa; P. aeruginosa PAO1, antibiotic MIC with 8 µg/mL (5 µM) compound 1) was 0.125 µg/mL. The “MICantibiotic + compound” value (P. aeruginosa; P. aeruginosa PAO1, antibiotic MIC with 8 µg/mL (5 µM) compound 3) was 1 µg/mL, the MICantibiotic (P. aeruginosa; P. aeruginosa PAO1) was 1 µg/mL and 0.5 µg/mL and the Potentiation (P. aeruginosa; P. aeruginosa PAO1, of antibiotic by 8 µg/mL (5 µM) compound 1) was 4 fold. For the same compound, the Potentiation (P. aeruginosa; P. aeruginosa PAO1, of antibiotic by 8 µg/mL (5 µM) compound 3) was 1 fold, the Interpretation (A. baumannii; A. baumannii 92247 (colistin-resistant), antibiotic + compound 1) was “Additive (0.5 < × ≤ 4 is additive)” and the “MICantibiotic + compound” value (A. baumannii; A. baumannii 92247 (colistin-resistant), antibiotic MIC with 4 µg/mL (2 µM) compound 1) was 0.063 µg/mL. It also gave an MICantibiotic (A. baumannii; A. baumannii 92247 (colistin-resistant)) of 0.063 µg/mL, a Potentiation (A. baumannii; A. baumannii 92247 (colistin-resistant), of antibiotic by 4 µg/mL (2 µM) compound 1) of 1 fold and an FIC index (A. baumannii; [3]) of 1.125. The Interpretation (A. baumannii; [3]) was “Additive (0.5 < × ≤ 4 is additive)”, the “MICantibiotic + compound” value (A. baumannii; A. baumannii 110193, antibiotic MIC with 4 µg/mL (2 µM) compound 1) was 0.25 µg/mL and the MICantibiotic (A. baumannii; A. baumannii 110193) was 0.25 µg/mL. For the same compound, the Potentiation (A. baumannii; A. baumannii 110193, of antibiotic by 4 µg/mL (2 µM) compound 1) was 1 fold, the Interpretation (A. baumannii; A. baumannii AB027, antibiotic + compound 1) was “Additive (0.5 < × ≤ 4 is additive)” and the “MICantibiotic + compound” value (A. baumannii; A. baumannii AB027, antibiotic MIC with 4 µg/mL (2 µM) compound 1) was 4 µg/mL. The MICantibiotic (A. baumannii; A. baumannii AB027) was 8 µg/mL, the Potentiation (A. baumannii; A. baumannii AB027, of antibiotic by 4 µg/mL (2 µM) compound 1) was 2 fold and the Interpretation (A. baumannii; A. baumannii AB031, antibiotic + compound 1) was “Additive (0.5 < × ≤ 4 is additive)”. The “MICantibiotic + compound” value (A. baumannii; A. baumannii AB031, antibiotic MIC with 4 µg/mL (2 µM) compound 1) was 0.125 µg/mL, the MICantibiotic (A. baumannii; A. baumannii AB031) was 0.25 µg/mL and the Potentiation (A. baumannii; A. baumannii AB031, of antibiotic by 4 µg/mL (2 µM) compound 1) was 2 fold. For the same compound, the FIC index (A. baumannii; [4]) was 0.650, the Interpretation (A. baumannii; [4]) was “Additive (0.5 < × ≤ 4 is additive)” and the Interpretation (A. baumannii; A. baumannii ATCC 17978, antibiotic + compound 3) was “Additive (0.5 < × ≤ 4 is additive)”. The “MICantibiotic + compound” value (A. baumannii; A. baumannii ATCC 17978, antibiotic MIC with 8 µg/mL (5 µM) compound 3) was 0.125 µg/mL, the “MICantibiotic + compound” value (A. baumannii; A. baumannii ATCC 17978, antibiotic MIC with ¼ MIC (≤5 µM) of compound 1) was 0.063 µg/mL and the MICantibiotic (A. baumannii; A. baumannii ATCC 17978) was 0.125 µg/mL. For the same compound, the Potentiation (A. baumannii; A. baumannii ATCC 17978, of antibiotic by 8 µg/mL (5 µM) compound 3) was 1 fold, the Potentiation (A. baumannii; A. baumannii ATCC 17978, of antibiotic by ¼ MIC (≤5 µM) of compound 1) was 2 fold and the FIC index (E. coli; E. coli 94393 (colistin-resistant), antibiotic + compound 1) was “x < 0.563”. For the same compound, the “MICantibiotic + compound” value (E. coli; [5]) was 1 µg/mL, the MICantibiotic (E. coli; [5]) was over 2 µg/mL and the Potentiation (E. coli; [5]) was ≥4-fold. For the same compound, the Interpretation (E. coli; E. coli 94474 (colistin-resistant), antibiotic + compound 1) was “Additive (0.5 < × ≤ 4 is additive)”, the “MICantibiotic + compound” value (E. coli; [6]) was 8 µg/mL and the MICantibiotic (E. coli; [6]) was 16 µg/mL. The Potentiation (E. coli; [6]) was 2 fold, the Interpretation (K. pneumoniae; [7]) was “Additive (0.5 < × ≤ 4 is additive)” and the “MICantibiotic + compound” value (K. pneumoniae; [7]) was 0.063 µg/mL. For the same compound, the MICantibiotic (K. pneumoniae; [7]) was 0.063 µg/mL, the Potentiation (K. pneumoniae; [7]) was 1 fold and the Interpretation (K. pneumoniae; K. pneumoniae 116381) was “Synergy (FIC indices of ≤0.5 is synergistic)”. The “MICantibiotic + compound” value (K. pneumoniae; K. pneumoniae 116381) was 4 µg/mL, the MICantibiotic (K. pneumoniae; K. pneumoniae 116381) was 256 µg/mL and the Potentiation (K. pneumoniae; K. pneumoniae 116381) was 64 fold. The Interpretation (E. cloacae; antibiotic + compound 1) was “Additive (0.5 < × ≤ 4 is additive)”, the “MICantibiotic + compound” value (E. cloacae; antibiotic MIC with 8 µg/mL (5 µM) compound 1) was 16 µg/mL and the MICantibiotic (E. cloacae; antibiotic alone) was 16 µg/mL. The Potentiation (E. cloacae; of antibiotic by 8 µg/mL (5 µM) compound 1) was 1 fold and the “clinical isolates in which the antibiotic was synergized by compound 1” value [1] was 5 (36%) strains.
